Results as given in the supplement of paper PMC10307832.

Assays:
Experiment in all cases: relative viability (nuclei count vs DMSO), 5 days (fraction); higher = more cells survive
NCI-H1915 = system: NCI-H1915
Outline: (§1)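 A single step with final 0.05% Triton X-100, 1% formaldehyde and 1 ug/ml Hoechst fixed the cells and stained nuclei 5 days after treatment. Lung cancer cell lines in 1536-well plates had been treated by pin tool the day after seeding with one drug alone or a fixed anchor-drug dose plus five library-drug doses (not always all listed) in √10 steps, and nuclei were counted on 4× images. Relative viability is the ratio of nuclei in treated wells to nuclei in vehicle wells, taken as the median of duplicate plates.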

LCLC-97TM1 = system: LCLC-97TM1
Outline: as §1

PC-14 = system: PC-14
Outline: as §1

H3255 = system: H3255
Outline: as §1

NCI-H2347 = system: NCI-H2347
Outline: as §1

NCI-H647 = system: NCI-H647
Outline: as §1

EPLC-272H = system: EPLC-272H
Outline: as §1

ChaGo-K-1 = system: ChaGo-K-1
Outline: as §1

NCI-H661 = system: NCI-H661
Outline: as §1

RERF-LC-KJ = system: RERF-LC-KJ
Outline: as §1

LC-2-ad = system: LC-2-ad
Outline: as §1

NCI-H2087 = conditions: first compound 0.0002 µM
Outline: as §1

CC(=O)O[C@@]12CO[C@@H]1C[C@H](O)[C@@]1(C)C(=O)[C@H](O)C3=C(C)[C@@H](OC(=O)[C@H](O)[C@@H](NC(=O)OC(C)(C)C)c4ccccc4)C[C@@](O)([C@@H](OC(=O)c4ccccc4)[C@H]21)C3(C)C [Docetaxel] + CS(=O)(=O)N1CCN(Cc2cc3nc(-c4cccc5[nH]ncc45)nc(N4CCOCC4)c3s2)CC1 [Pictilisib] (partner 1 µM)
relative viability (NCI-H1915; first compound 0.0002 µM): 0.857
relative viability (NCI-H1915; first compound 0.000632 µM): 0.931
relative viability (NCI-H1915; first compound 0.002 µM): 0.275
relative viability (NCI-H1915; first compound 0.006325 µM): 0.257
relative viability (NCI-H1915; first compound 0.02 µM): 0.11
relative viability (LCLC-97TM1; first compound 0.000632 µM): 0.206
relative viability (LCLC-97TM1; first compound 0.002 µM): 0.113
relative viability (LCLC-97TM1; first compound 0.006325 µM): 0.112
relative viability (LCLC-97TM1; first compound 0.02 µM): 0.102
relative viability (PC-14; first compound 0.0002 µM): 0.629
relative viability (PC-14; first compound 0.000632 µM): 0.376
relative viability (PC-14; first compound 0.002 µM): 0.0774
relative viability (PC-14; first compound 0.006325 µM): 0.0423
relative viability (PC-14; first compound 0.02 µM): 0.0293
relative viability (H3255; first compound 0.0002 µM): 0.395
relative viability (H3255; first compound 0.000632 µM): 0.544
relative viability (H3255; first compound 0.002 µM): 0.272
relative viability (H3255; first compound 0.006325 µM): 0.21
relative viability (H3255; first compound 0.02 µM): 0.195
relative viability (NCI-H2347; first compound 0.0002 µM): 0.462
relative viability (NCI-H2347; first compound 0.000632 µM): 0.564
relative viability (NCI-H2347; first compound 0.002 µM): 0.696
relative viability (NCI-H2347; first compound 0.006325 µM): 0.647
relative viability (NCI-H2347; first compound 0.02 µM): 0.066
relative viability (NCI-H647; first compound 0.0002 µM): 0.293
relative viability (NCI-H647; first compound 0.000632 µM): 0.206
relative viability (NCI-H647; first compound 0.002 µM): 0.138
relative viability (NCI-H647; first compound 0.006325 µM): 0.117
relative viability (NCI-H647; first compound 0.02 µM): 0.0727
relative viability (EPLC-272H; first compound 0.0002 µM): 0.27
relative viability (EPLC-272H; first compound 0.000632 µM): 0.198
relative viability (EPLC-272H; first compound 0.002 µM): 0.161
relative viability (EPLC-272H; first compound 0.006325 µM): 0.111
relative viability (EPLC-272H; first compound 0.02 µM): 0.126
relative viability (ChaGo-K-1; first compound 0.0002 µM): 0.771
relative viability (ChaGo-K-1; first compound 0.000632 µM): 0.421
relative viability (ChaGo-K-1; first compound 0.002 µM): 0.44
relative viability (ChaGo-K-1; first compound 0.006325 µM): 0.354
relative viability (ChaGo-K-1; first compound 0.02 µM): 0.201
relative viability (NCI-H661; first compound 0.0002 µM): 0.356
relative viability (NCI-H661; first compound 0.000632 µM): 0.387
relative viability (NCI-H661; first compound 0.002 µM): 0.341
relative viability (NCI-H661; first compound 0.006325 µM): 0.296
relative viability (NCI-H661; first compound 0.02 µM): 0.278
relative viability (RERF-LC-KJ; first compound 0.0002 µM): 0.525
relative viability (RERF-LC-KJ; first compound 0.000632 µM): 0.408
relative viability (RERF-LC-KJ; first compound 0.002 µM): 0.189
relative viability (RERF-LC-KJ; first compound 0.006325 µM): 0.223
relative viability (RERF-LC-KJ; first compound 0.02 µM): 0.104
relative viability (LC-2-ad; first compound 0.0002 µM): 0.29
relative viability (LC-2-ad; first compound 0.002 µM): 0.106
relative viability (LC-2-ad; first compound 0.006325 µM): 0.113
relative viability (LC-2-ad; first compound 0.02 µM): 0.0847
relative viability (NCI-H2087): 0.841
